The test deals with FigC (Francisella tularensis, UniProt Q15EG8). Particulars: covalent (Schiff base with K63); active site at dimer interface.
FigC, sequence (Q15EG8 1-417): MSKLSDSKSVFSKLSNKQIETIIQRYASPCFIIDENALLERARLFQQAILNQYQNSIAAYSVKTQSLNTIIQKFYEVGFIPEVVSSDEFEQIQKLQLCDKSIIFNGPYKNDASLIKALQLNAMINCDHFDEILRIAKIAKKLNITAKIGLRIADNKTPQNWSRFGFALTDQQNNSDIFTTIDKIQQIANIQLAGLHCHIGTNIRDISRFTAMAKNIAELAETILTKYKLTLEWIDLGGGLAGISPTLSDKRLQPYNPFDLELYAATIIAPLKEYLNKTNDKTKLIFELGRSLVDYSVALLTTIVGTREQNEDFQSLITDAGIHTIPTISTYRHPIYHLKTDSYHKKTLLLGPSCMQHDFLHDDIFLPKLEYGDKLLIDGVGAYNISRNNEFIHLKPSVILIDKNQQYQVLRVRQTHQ

As to `Cc1ncc(COP(=O)(O)O)c(C=O)c1O` [PLP], the “X-ray crystal structure, 2.1 Å, SeMet SAD” value is “all four active sites showed good density for the cofactor PLP”.

Values taken from article PMC7857480 (The Journal of Biological Chemistry, 2020).
